{"source": "patent US20190255078A1", "about": "“TOPICAL COMPOSITIONS WITH STABLE SOLUBILIZED SELECTIVE RETINOIDS AND/OR TETRACYCLINE-CLASS ANTIBIOTICS” (BioPharmX, Inc., priority 2018, published 2019)", "key": {"[1]": {"details": "cited from earlier work"}, "[2]": {"tested_on": "antibiotic-resistant P. acnes", "details": "clinical isolates of antibiotic-resistant P. acnes; cited from earlier work"}, "[3]": {"experiment": "Room temperature stability of tazarotene and minocycline in single and combination compositions (Example 5)", "format": "physicochemical", "details": "18 months"}, "[4]": {"experiment": "Stability of tazarotene in solution with antioxidants and/or magnesium chloride (Example 3A)", "format": "physicochemical", "details": "ethanol (anhydrous), sodium metabisulfite, sealed amber glass"}, "[5]": {"experiment": "Stability of tazarotene in solution with antioxidants and/or magnesium chloride (Example 3A)", "format": "physicochemical", "description": "Retinoids can undergo chemical degradation in solutions due to oxidation. However, many antioxidants are not effective in sufficiently stabilizing retinoids in a pharmaceutical composition. A study was performed in which samples consisting of 0.05% (w/w) tazarotene dissolved in 79.15% (w/w) ethanol (anhydrous), 0.6% hydroxypropyl cellulose HF (KLUCEL HF), 20% propylene glycol, and 0.20% (w/w) of an antioxidant were stored in a sealed amber glass container for 8 weeks at 40° C. For the tested composition with no antioxidant, the additional 0.20% was made up with ethanol (anhydrous).\nOnly one of the antioxidants improved the stability of tazarotene: propyl gallete, reducing the degradation from 5% to 1% over the 8-week period. In contrast, the antioxidant ascorbic acid increased the degradation from 5% to approximately 50% over the 8-week period.\nSimilarly, divalent cations such as magnesium, are also ineffective in stabilizing tazarotene. A mixture comprising ethanol, 0.6% magnesium chloride, and 0.05% tazarotene was stored in a sealed amber glass container for 13 weeks at 40° C.\nA mixture comprising ethanol, 0.6% magnesium chloride, 0.2% sodium metabisulfite, and 0.05% tazarotene was stored in a sealed amber glass container for 13 weeks at 40° C. The tazarotene degraded by 3% over the 13-week period in comparison to 5% degradation for a mixture comprising ethanol and 0.05% tazarotene (and without magnesium chloride or an antioxidant) over the same period. […] Measurements for an additional composition comprising ethanol, 0.20% sodium metabisulfite, and 0.05% tazarotene (without the presence of magnesium chloride) were taken at 0, 1, 2, 4, and 8 weeks. Only the data at 0 and 8 weeks are presented in FIG. 3A for this composition. Data for this composition was not captured at 13 weeks."}, "[6]": {"experiment": "Stability at 40° C. of single and dual API compositions of Table 13-1 (Example 10)", "details": "6 months", "method": "The exemplary compositions comprised tazarotene, minocycline, or a combination thereof. Each composition was stored at room temperature for 2 and 5 weeks in a sealed amber glass container at 40° C."}, "[7]": {"experiment": "Solubility of tazarotene in solvents and solvent mixtures (Example 2)", "format": "physicochemical", "source_text": "Tazarotene is known to have low solubility in many traditional solvent systems. […] However, compositions with ethanol as the only solvent are typically irritating to the skin, have a pungent smell, and leave the skin feeling dry. […] It has been discovered that that mixtures of ethanol and carboxylate esters have higher solubility of tazarotene than would be expected from mixtures of the components individually.\nTazarotene is desirably used in compositions at a concentration of 0.01% to 0.20% (w/w). […].\nAs shown in Table 5 and FIG. 2, the tazarotene solubility in selected binary and tertiary mixtures was even higher than the solubility of tazarotene in ethanol alone. […] Even small amounts of carboxylate esters can have unexpectedly large effects.\nThus, the tazarotene in selected ranges of binary mixtures was higher than the solubility of tazarotene in the individual components of the solvent mixture."}}, "data": [{"smiles": "COc1ccc(-c2ccc3cc(C(=O)O)ccc3c2)cc1C12CC3CC(CC(C3)C1)C2", "note": "[Adapalene, 6-[3-(1-adamantyl)-4-methoxy-phenyl]naphthalene-2-carboxylic acid]", "values": [{"measurement": "log P", "setting": "[1]", "result": "approximately 6"}]}, {"smiles": "C[C@H]1c2cccc(O)c2C(=O)C2=C(O)[C@]3(O)C(=O)C(C(N)=O)=C(O)[C@@H](N(C)C)[C@@H]3[C@@H](O)[C@@H]21", "note": "[doxycycline, (4S,4aR,5S,5aR,6R,12aS)-4-(dimethylamino)-3,5,10,12,12a-pentahydroxy-6-methyl-1,11-dioxo-1,4,4a,5,5a,6,11,12a-octahydrotetracene-2-carboxamide]", "values": [{"measurement": "Log P", "setting": "[1]; free base form", "result": "about −0.02"}, {"measurement": "average MIC90", "setting": "[2]", "result": 8, "unit": "µg/mL"}]}, {"smiles": "CC[C@H]1OC(=O)[C@H](C)[C@@H](O[C@H]2C[C@@](C)(OC)[C@@H](O)[C@H](C)O2)[C@H](C)[C@@H](O[C@@H]2O[C@H](C)C[C@H](N(C)C)[C@H]2O)[C@](C)(O)C[C@@H](C)C(=O)[C@H](C)[C@@H](O)[C@]1(C)O", "note": "[erythromycin]", "values": [{"measurement": "average MIC90", "setting": "[2]", "result": "~512", "unit": "µg/mL"}]}, {"smiles": "CCOC(=O)c1ccc(C#Cc2ccc3c(c2)C(C)(C)CCS3)nc1", "note": "[tazarotene, ethyl 6-[2-(4,4-dimethyl-2,3-dihydrothiochromen-6-yl)ethynyl]pyridine-3-carboxylate]", "values": [{"measurement": "stability when added in combination versus each drug alone", "setting": "[3]; compositions of Table 9", "result": "more stable"}, {"measurement": "stability in compositions of Table 9", "setting": "[3]; sealed amber glass", "result": "stable after 18 months"}, {"measurement": "tazarotene degradation when stored for 12 months at room temperature", "setting": "[4]", "result": "less than 7%"}, {"measurement": "Reduction in Tazarotene concentration after 8 weeks at 40° C. (% degradation relative to baseline tazarotene)", "setting": "[5]; 0.05% tazarotene in ethanol/20% propylene glycol/0.6% HPC, antioxidant: none", "result": 5, "unit": "%"}, {"measurement": "Reduction in Tazarotene concentration after 8 weeks at 40° C. (% degradation relative to baseline tazarotene)", "setting": "[5]; antioxidant: 0.20% BHT", "result": 5, "unit": "%"}, {"measurement": "Reduction in Tazarotene concentration after 8 weeks at 40° C. (% degradation relative to baseline tazarotene)", "setting": "[5]; antioxidant: 0.20% Dl-Alpha Tocopherol", "result": 5, "unit": "%"}, {"measurement": "Reduction in Tazarotene concentration after 8 weeks at 40° C. (% degradation relative to baseline tazarotene)", "setting": "[5]; antioxidant: 0.20% propyl gallete", "result": 1, "unit": "%"}, {"measurement": "Reduction in Tazarotene concentration after 8 weeks at 40° C. (% degradation relative to baseline tazarotene)", "setting": "[5]; antioxidant: 0.20% sodium metabisulfite (SMBS)", "result": 8, "unit": "%"}, {"measurement": "Reduction in Tazarotene concentration after 8 weeks at 40° C. (% degradation relative to baseline tazarotene)", "setting": "[5]; antioxidant: 0.20% sodium nitrate", "result": 10, "unit": "%"}, {"measurement": "Reduction in Tazarotene concentration after 8 weeks at 40° C. (% degradation relative to baseline tazarotene)", "setting": "[5]; antioxidant: 0.20% sodium sulfite", "result": 10, "unit": "%"}, {"measurement": "Reduction in Tazarotene concentration after 8 weeks at 40° C. (% degradation relative to baseline tazarotene)", "setting": "[5]; antioxidant: 0.20% tocopherol", "result": 5, "unit": "%"}, {"measurement": "tazarotene degradation over 13 weeks at 40° C.", "setting": "[5]; ethanol and 0.05% tazarotene, without magnesium chloride or antioxidant", "result": 5, "unit": "%"}, {"measurement": "tazarotene degradation over 13 weeks at 40° C.", "setting": "[5]; ethanol, 0.6% magnesium chloride, 0.05% tazarotene, sealed amber glass", "result": 13, "unit": "%"}, {"measurement": "tazarotene degradation over 13 weeks at 40° C.", "setting": "[5]; ethanol, 0.6% magnesium chloride, 0.2% sodium metabisulfite, 0.05% tazarotene", "result": 3, "unit": "%"}, {"measurement": "stability when added in combination versus alone", "setting": "[6]; compositions of Table 13-1", "result": "more stable"}, {"measurement": "stability in single API and dual API compositions", "setting": "[6]; compositions of Table 13-1 (FIGS. 8A-8B)", "result": "stable"}, {"measurement": "tazarotene solubility relative to solubility in ester alone", "setting": "[7]; ethanol and at least one carboxylate ester, binary and tertiary mixtures", "result": "2-5 times"}, {"measurement": "TAZAROTENE SOLUBILITY", "setting": "[7]; ethanol and diisopropyl adipate 1:1 (W/W)", "result": 39.0, "unit": "mg/g"}, {"measurement": "TAZAROTENE SOLUBILITY", "setting": "[7]; ethanol and diisopropyl adipate 9:1 (W/W)", "result": 23.3, "unit": "mg/g"}, {"measurement": "TAZAROTENE SOLUBILITY", "setting": "[7]; ethanol and dimethyl succinate 20:80 (W/w)", "result": 109.42, "unit": "mg/g"}, {"measurement": "TAZAROTENE SOLUBILITY", "setting": "[7]; ethanol and dimethyl succinate 40:60 (W/w)", "result": 103.65, "unit": "mg/g"}, {"measurement": "TAZAROTENE SOLUBILITY", "setting": "[7]; ethanol and dimethyl succinate 60:40 (W/w)", "result": 67.18, "unit": "mg/g"}, {"measurement": "TAZAROTENE SOLUBILITY", "setting": "[7]; ethanol and dimethyl succinate 80:20 (W/w)", "result": 45.30, "unit": "mg/g"}, {"measurement": "TAZAROTENE SOLUBILITY", "setting": "[7]; ethanol and isopropyl myristate 1:1 (W/W)", "result": 37.8, "unit": "mg/g"}, {"measurement": "TAZAROTENE SOLUBILITY", "setting": "[7]; ethanol and isopropyl myristate 9:1 (W/W)", "result": 34.8, "unit": "mg/g"}, {"measurement": "TAZAROTENE SOLUBILITY", "setting": "[7]; ethanol and medium chain triglyceride 1:1 (W/W)", "result": 38.6, "unit": "mg/g"}, {"measurement": "TAZAROTENE SOLUBILITY", "setting": "[7]; ethanol and medium chain triglyceride 9:1 (W/W)", "result": 23.5, "unit": "mg/g"}, {"measurement": "TAZAROTENE SOLUBILITY", "setting": "[7]; ethanol and propyl acetate 20:80 (W/w)", "result": 179.99, "unit": "mg/g"}, {"measurement": "TAZAROTENE SOLUBILITY", "setting": "[7]; ethanol and propyl acetate 40:60 (W/w)", "result": 139.85, "unit": "mg/g"}, {"measurement": "TAZAROTENE SOLUBILITY", "setting": "[7]; ethanol and propyl acetate 60:40 (W/w)", "result": 80.16, "unit": "mg/g"}, {"measurement": "TAZAROTENE SOLUBILITY", "setting": "[7]; ethanol and propyl acetate 80:20 (W/w)", "result": 44.12, "unit": "mg/g"}, {"measurement": "TAZAROTENE SOLUBILITY", "setting": "[7]; ethanol and propylene glycol 1:1 (W/W)", "result": 10.3, "unit": "mg/g"}, {"measurement": "TAZAROTENE SOLUBILITY", "setting": "[7]; ethanol and propylene glycol 4:1 (W/W)", "result": 22.3, "unit": "mg/g"}, {"measurement": "TAZAROTENE SOLUBILITY", "setting": "[7]; ethanol, glycerol, and isopropyl myristate 7:2:1 (W/W)", "result": 30.3, "unit": "mg/g"}, {"measurement": "TAZAROTENE SOLUBILITY", "setting": "[7]; ethanol, propylene glycol, and diisopropyl adipate 7:2:1 (W/W)", "result": 24.9, "unit": "mg/g"}, {"measurement": "TAZAROTENE SOLUBILITY", "setting": "[7]; ethanol, propylene glycol, and dimethyl succinate 7:2:1 (W/W)", "result": 30.1, "unit": "mg/g"}, {"measurement": "TAZAROTENE SOLUBILITY", "setting": "[7]; ethanol, propylene glycol, and isopropyl myristate 7:2:1 (W/W)", "result": 32.3, "unit": "mg/g"}, {"measurement": "TAZAROTENE SOLUBILITY", "setting": "[7]; ethanol, propylene glycol, and medium chain triglycerides 7:2:1 (W/W)", "result": 24.4, "unit": "mg/g"}, {"measurement": "TAZAROTENE SOLUBILITY", "setting": "[7]; ethanol, propylene glycol, and propyl acetate 7:2:1 (W/W)", "result": 29.1, "unit": "mg/g"}, {"measurement": "TAZAROTENE SOLUBILITY", "setting": "[7]; in diisopropyl adipate", "result": 1.21, "unit": "mg/g"}, {"measurement": "TAZAROTENE SOLUBILITY", "setting": "[7]; in dimethyl succinate", "result": 63.18, "unit": "mg/g"}, {"measurement": "TAZAROTENE SOLUBILITY", "setting": "[7]; in isopropyl myristate", "result": 0.75, "unit": "mg/g"}, {"measurement": "TAZAROTENE SOLUBILITY", "setting": "[7]; in medium chain triglycerides", "result": 0.16, "unit": "mg/g"}, {"measurement": "TAZAROTENE SOLUBILITY", "setting": "[7]; in propyl acetate", "result": 138.04, "unit": "mg/g"}, {"measurement": "TAZAROTENE SOLUBILITY", "setting": "[7]; in propylene glycol", "result": 0.0054, "unit": "mg/g"}, {"measurement": "TAZAROTENE SOLUBILITY", "setting": "[7]; propylene glycol and diisopropyl adipate 2:0 (W/W)", "result": 5.6, "unit": "mg/g"}, {"measurement": "TAZAROTENE SOLUBILITY", "setting": "[7]; propylene glycol and dimethyl succinate 2:1 (W/W)", "result": 1.27, "unit": "mg/g"}, {"measurement": "TAZAROTENE SOLUBILITY", "setting": "[7]; propylene glycol and isopropyl myristate 2:1 (W/W)", "result": 6.0, "unit": "mg/g"}, {"measurement": "TAZAROTENE SOLUBILITY", "setting": "[7]; propylene glycol and propyl acetate 2:1 (W/W)", "result": 1.55, "unit": "mg/g"}, {"measurement": "solubility for tazarotene in combined solvent systems", "setting": "[7]; selected ratios of carboxylate esters to monohydric aliphatic alcohol", "result": "at least 25 mg/g"}, {"measurement": "log P", "setting": "[1]", "result": "~4.3"}]}]}
